Reference: PubChem BioAssay (NCI)
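These data come from cells grown in 96-well plates and exposed to compound for 48 hours at five concentrations. At the GI50, growth is halved. At the TGI there is no net growth.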

Tests used:
Assay in all cases: NCI-60 cell line screen, 48 h
OVCAR-4 ovarian = tested on: OVCAR-4 ovarian
HS 578T breast = tested on: HS 578T breast
SK-MEL-28 melanoma = tested on: SK-MEL-28 melanoma
MALME-3M melanoma = tested on: MALME-3M melanoma
HT29 colon = tested on: HT29 colon
CCRF-CEM leukemia = tested on: CCRF-CEM leukemia
MDA-MB-435 = tested on: MDA-MB-435
EKVX NSCLC = tested on: EKVX NSCLC
CAKI-1 renal = tested on: CAKI-1 renal
A498 renal = tested on: A498 renal

## COc1ccc2nc(/C(N)=C\C#N)ccc2c1
OVCAR-4 ovarian
  TGI: > 100 µM
HS 578T breast
  TGI: > 100 µM
SK-MEL-28 melanoma
  TGI: > 100 µM
MALME-3M melanoma
  TGI: > 100 µM
HT29 colon
  TGI: > 100 µM
CCRF-CEM leukemia
  TGI: > 100 µM
MDA-MB-435
  TGI: > 100 µM
EKVX NSCLC
  TGI: > 100 µM
CAKI-1 renal
  TGI: > 100 µM

## O=P(O)(O)c1ccccc1Oc1ccccc1
HS 578T breast
  TGI: > 100 µM
SK-MEL-28 melanoma
  TGI: > 100 µM
A498 renal
  TGI: > 100 µM
CCRF-CEM leukemia
  TGI: > 100 µM
MDA-MB-435
  TGI: > 100 µM
EKVX NSCLC
  TGI: > 100 µM
CAKI-1 renal
  TGI: > 100 µM

## CCC1=C(C(C)=O)[C@@H]2CCCCC[C@@H](C(=O)OC)C2C1=O (some centres undefined)
OVCAR-4 ovarian
  TGI: > 100 µM
SK-MEL-28 melanoma
  TGI: > 100 µM
MALME-3M melanoma
  TGI: > 100 µM
HT29 colon
  TGI: > 100 µM
A498 renal
  TGI: > 100 µM
CCRF-CEM leukemia
  TGI: > 100 µM
EKVX NSCLC
  TGI: > 100 µM
CAKI-1 renal
  TGI: > 100 µM

## CCC(O)(Cc1ccc(OC)cc1)c1ccc(OC)cc1 (centres undefined)
OVCAR-4 ovarian
  TGI: > 100 µM
HS 578T breast
  TGI: > 100 µM
MALME-3M melanoma
  TGI: > 100 µM
HT29 colon
  TGI: > 100 µM
A498 renal
  TGI: > 100 µM
CCRF-CEM leukemia
  TGI: > 100 µM
MDA-MB-435
  TGI: > 100 µM
EKVX NSCLC
  TGI: > 100 µM
CAKI-1 renal
  TGI: > 100 µM

## CCOC(=O)C1(C#N)C(c2ccccc2)CC(O)(c2ccc(Cl)cc2)C(C(=O)c2ccc(Cl)cc2)C1c1ccccc1 (centres undefined)
OVCAR-4 ovarian
  TGI: > 100 µM
SK-MEL-28 melanoma
  TGI: > 100 µM
MALME-3M melanoma
  TGI: > 100 µM
HT29 colon
  TGI: > 100 µM
CCRF-CEM leukemia
  TGI: > 100 µM
EKVX NSCLC
  TGI: > 100 µM
CAKI-1 renal
  TGI: > 100 µM

## CC1(C)OCC2OC3([C@@H]4OC(C)(C)O[C@H]4CO)OC(C)(C)OC3C2O1 (some centres undefined)
OVCAR-4 ovarian
  TGI: > 100 µM
SK-MEL-28 melanoma
  TGI: > 100 µM
A498 renal
  TGI: > 100 µM
CCRF-CEM leukemia
  TGI: > 100 µM
MDA-MB-435
  TGI: > 100 µM
EKVX NSCLC
  TGI: > 100 µM
CAKI-1 renal
  TGI: > 100 µM

## CN1C(=O)N(C)C(O)C(Cl)(Br)C1=O (centres undefined)
HS 578T breast
  TGI: > 100 µM
SK-MEL-28 melanoma
  TGI: > 100 µM
MALME-3M melanoma
  TGI: > 100 µM
HT29 colon
  TGI: > 100 µM
A498 renal
  TGI: > 100 µM
CCRF-CEM leukemia
  TGI: > 100 µM
MDA-MB-435
  TGI: > 100 µM
EKVX NSCLC
  TGI: > 100 µM
CAKI-1 renal
  TGI: > 100 µM

## CSC(SC)=C(C(=O)O)P(=O)(O)O
OVCAR-4 ovarian
  TGI: > 100 µM
HS 578T breast
  TGI: > 100 µM
SK-MEL-28 melanoma
  TGI: > 100 µM
MALME-3M melanoma
  TGI: > 100 µM
HT29 colon
  TGI: > 100 µM
A498 renal
  TGI: > 100 µM
CCRF-CEM leukemia
  TGI: > 100 µM
EKVX NSCLC
  TGI: > 100 µM
CAKI-1 renal
  TGI: > 100 µM

## CS(=O)(=O)CSCSSCS(C)(=O)=O
OVCAR-4 ovarian
  TGI: > 100 µM
SK-MEL-28 melanoma
  TGI: 66.4 µM
MALME-3M melanoma
  TGI: > 100 µM
HT29 colon
  TGI: > 100 µM
A498 renal
  TGI: > 100 µM
CCRF-CEM leukemia
  TGI: 70.5 µM
EKVX NSCLC
  TGI: > 100 µM
CAKI-1 renal
  TGI: > 57.2 µM

## O=C1N=C2SC(=S)NC(=S)N2NC12c1ccccc1-c1ccccc12
OVCAR-4 ovarian
  TGI: > 10 µM
HS 578T breast
  TGI: > 10 µM
MALME-3M melanoma
  TGI: > 10 µM
HT29 colon
  TGI: > 10 µM
A498 renal
  TGI: 6.58 µM
CCRF-CEM leukemia
  TGI: > 10 µM
EKVX NSCLC
  TGI: > 10 µM
CAKI-1 renal
  TGI: > 10 µM

## COC(=O)[C@@H]1CCCCC[C@H]2C(CO)=C(C)C(=O)C12 (some centres undefined)
OVCAR-4 ovarian
  TGI: > 100 µM
SK-MEL-28 melanoma
  TGI: > 100 µM
MALME-3M melanoma
  TGI: > 100 µM
HT29 colon
  TGI: > 100 µM
A498 renal
  TGI: > 100 µM
CCRF-CEM leukemia
  TGI: > 100 µM
EKVX NSCLC
  TGI: > 100 µM
CAKI-1 renal
  TGI: > 100 µM

## CC(C)(C)OC(=O)NC(Cc1ccccc1)NC(=O)NC(=O)OCc1ccccc1 (centres undefined)
HS 578T breast
  TGI: > 100 µM
SK-MEL-28 melanoma
  TGI: > 100 µM
MALME-3M melanoma
  TGI: > 100 µM
HT29 colon
  TGI: > 100 µM
MDA-MB-435
  TGI: > 100 µM
EKVX NSCLC
  TGI: > 100 µM
CAKI-1 renal
  TGI: 64.1 µM

## N#C/C(C(=O)Nc1ccc(Cl)cc1)=C(/N)N1CCCC1
SK-MEL-28 melanoma
  TGI: > 100 µM
A498 renal
  TGI: > 100 µM
CCRF-CEM leukemia
  TGI: > 100 µM
MDA-MB-435
  TGI: > 100 µM
EKVX NSCLC
  TGI: > 100 µM
CAKI-1 renal
  TGI: > 100 µM

## CN(C)CC1CCC/C(=C\c2ccc(OC(=O)c3ccc(Cl)cc3)cc2)C1=O (centres undefined)
OVCAR-4 ovarian
  TGI: 8.94 µM
HS 578T breast
  TGI: 10.3 µM
SK-MEL-28 melanoma
  TGI: 8.52 µM
MALME-3M melanoma
  TGI: 6.8 µM
HT29 colon
  TGI: 4.1 µM
A498 renal
  TGI: 22.6 µM
MDA-MB-435
  TGI: 4.01 µM
EKVX NSCLC
  TGI: 6.16 µM
CAKI-1 renal
  TGI: 5.13 µM

## N#C/C(=C/n1c(=S)[nH]c2ccc([N+](=O)[O-])cc21)C(N)=O
OVCAR-4 ovarian
  TGI: > 100 µM
HS 578T breast
  TGI: > 100 µM
SK-MEL-28 melanoma
  TGI: > 100 µM
MALME-3M melanoma
  TGI: > 100 µM
HT29 colon
  TGI: > 100 µM
CCRF-CEM leukemia
  TGI: > 100 µM
MDA-MB-435
  TGI: > 100 µM
EKVX NSCLC
  TGI: > 100 µM
CAKI-1 renal
  TGI: > 100 µM

## O=C1C=CC(=O)N1n1c(-c2ccccc2)n[nH]c1=O
OVCAR-4 ovarian
  TGI: > 100 µM
HS 578T breast
  TGI: > 100 µM
MALME-3M melanoma
  TGI: > 100 µM
HT29 colon
  TGI: > 100 µM
A498 renal
  TGI: > 100 µM
CCRF-CEM leukemia
  TGI: > 100 µM
MDA-MB-435
  TGI: > 100 µM
EKVX NSCLC
  TGI: > 100 µM
CAKI-1 renal
  TGI: > 100 µM

## O=C(OCCN=c1c2ccccc2ccc2ccccc12)c1ccccc1
OVCAR-4 ovarian
  TGI: > 100 µM
HS 578T breast
  TGI: > 100 µM
SK-MEL-28 melanoma
  TGI: > 100 µM
MALME-3M melanoma
  TGI: > 100 µM
HT29 colon
  TGI: > 100 µM
CCRF-CEM leukemia
  TGI: > 100 µM
MDA-MB-435
  TGI: > 100 µM
EKVX NSCLC
  TGI: > 100 µM
CAKI-1 renal
  TGI: > 100 µM

## COC(=O)C1=C(C(=O)OC)SC(=CC#CC=C2SC(C(=O)OC)=C(C(=O)OC)S2)S1
OVCAR-4 ovarian
  TGI: 35.3 µM
SK-MEL-28 melanoma
  TGI: > 63.2 µM
MALME-3M melanoma
  TGI: 64.1 µM
HT29 colon
  TGI: > 100 µM
A498 renal
  TGI: 34.7 µM
CCRF-CEM leukemia
  TGI: > 100 µM
EKVX NSCLC
  TGI: > 100 µM
CAKI-1 renal
  TGI: > 68.3 µM

## O=c1[nH]c2nc3ccccc3nc2[nH]c1=O
OVCAR-4 ovarian
  TGI: > 100 µM
HS 578T breast
  TGI: > 100 µM
SK-MEL-28 melanoma
  TGI: > 100 µM
MALME-3M melanoma
  TGI: > 100 µM
HT29 colon
  TGI: > 100 µM
CCRF-CEM leukemia
  TGI: > 100 µM
MDA-MB-435
  TGI: > 100 µM
EKVX NSCLC
  TGI: > 100 µM
CAKI-1 renal
  TGI: > 100 µM

## C=C(C)OCOCCOC
HS 578T breast
  TGI: > 100 µM
SK-MEL-28 melanoma
  TGI: > 100 µM
MALME-3M melanoma
  TGI: > 100 µM
HT29 colon
  TGI: > 100 µM
A498 renal
  TGI: > 100 µM
CCRF-CEM leukemia
  TGI: > 100 µM
MDA-MB-435
  TGI: > 100 µM
EKVX NSCLC
  TGI: > 100 µM
CAKI-1 renal
  TGI: > 100 µM

## O=C(N/N=C(/CCN1CCCC1)CC(c1ccccc1)c1c(O)c2ccccc2oc1=O)c1ccncc1 (centres undefined)
OVCAR-4 ovarian
  TGI: > 100 µM
MALME-3M melanoma
  TGI: > 100 µM
HT29 colon
  TGI: > 100 µM
A498 renal
  TGI: > 100 µM
CCRF-CEM leukemia
  TGI: > 100 µM
EKVX NSCLC
  TGI: > 100 µM
CAKI-1 renal
  TGI: > 100 µM

## CN(C)/N=C(/c1nc2ccc(Cl)cc2[nH]c1=O)C(O)c1ccc(C(O)/C(=N\N(C)C)c2nc3ccc(Cl)cc3[nH]c2=O)cc1 (centres undefined)
OVCAR-4 ovarian
  TGI: > 100 µM
SK-MEL-28 melanoma
  TGI: > 100 µM
MALME-3M melanoma
  TGI: > 100 µM
HT29 colon
  TGI: > 100 µM
A498 renal
  TGI: > 100 µM
CCRF-CEM leukemia
  TGI: > 100 µM
EKVX NSCLC
  TGI: > 100 µM
CAKI-1 renal
  TGI: > 100 µM

## COc1cc(-c2n/c(=C\c3c(O)[nH]c4ccc(Cl)cc34)cc3c2=Nc2ccccc2-3)ccc1F
OVCAR-4 ovarian
  GI50: 1.74 µM
  TGI: 3.48 µM
HS 578T breast
  GI50: 2.07 µM
  TGI: 5.92 µM
SK-MEL-28 melanoma
  GI50: 2.27 µM
  TGI: 5.02 µM
A498 renal
  GI50: 3.16 µM
  TGI: 15.2 µM
CCRF-CEM leukemia
  GI50: 2.39 µM
  TGI: > 100 µM
MDA-MB-435
  GI50: 2.16 µM
  TGI: 4.65 µM
EKVX NSCLC
  GI50: 4.12 µM
  TGI: 27.2 µM
CAKI-1 renal
  GI50: 2.55 µM
  TGI: 8.66 µM

## CC1C(NNc2ccccc2)Oc2cc3c(cc2C1c1ccccc1O)OCO3 (centres undefined)
HS 578T breast
  TGI: 42.7 µM
SK-MEL-28 melanoma
  TGI: 26.6 µM
MALME-3M melanoma
  TGI: 10.4 µM
HT29 colon
  TGI: 19.4 µM
A498 renal
  TGI: 29.2 µM
CCRF-CEM leukemia
  TGI: 13 µM
MDA-MB-435
  TGI: 12.5 µM
EKVX NSCLC
  TGI: 23.3 µM
CAKI-1 renal
  TGI: 13.7 µM
